This is an account of results in patent publication US7026317B2, “Pyrazolotriazines as CRF antagonists” (Bristol-Myers Squibb Pharma Company, priority 1999, dated 2006).

Take `CCc1nn2c(-c3ccc(Cl)cc3Cl)nc(C)nc2c1C(CC)CC` [compound 1, 4-(2,4-dichlorophenyl)-8-(3-pentyl)-7-ethyl-2-methyl-pyrazolo[1,5-a]-1,3,5-triazine]: the melting point (usually the temperature, or range, at which the solid turns liquid) lay in the range of 91 to 93 °C.

The compound `CCc1nn2c(-c3ccc(Cl)cc3Cl)nc(C)nc2c1N(CC)CC` [compound 3, 4-(2,4-dichlorophenyl)-8-diethylamino-7-ethyl-2-methyl-pyrazolo[1,5-a]-1,3,5-triazine] came in with a melting point of 98 to 99 °C.
